Data published in PubChem BioAssay AID328 (DTP/NCI, 2004).
“And” between values parts separate entries of the source, which are not always exact repeats. Identical values can stand only once. Inconclusive results and toxic doses are left out. The calls were made as follows: active = survival T/C of 150% or more; inactive = T/C below 125% in these data. Residues, ends and D or L forms follow the SMILES beside them. *: point of attachment. Cbz = O=C(OCc1ccccc1)*

System: BDF1 mice, P388 leukemia ip, median survival T/C
Experiment: NCI In Vivo Anticancer Drug Screen. Data for tumor model P388 Leukemia (intraperitoneal) in B6D2F1 (BDF1) mice
Conditions: endpoint: median survival time, higher = longer survival
Method in brief: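 Transplantable tumour in mice; compound vs vehicle dosing; survival scored; ratio of treated to control reported.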

[1] = dose: 25.0 mg/kg/injection, schedule: Q01DX009 (ip), vehicle: saline with Tween-80
[2] = dose: 12.5 mg/kg/injection, schedule: Q01DX009 (ip), vehicle: saline with Tween-80
[3] = dose: 12.5 mg/kg/injection, schedule: Q04DX003 (ip), vehicle: saline with Tween-80
[4] = dose: 25.0 mg/kg/injection, schedule: Q04DX003 (ip), vehicle: saline with Tween-80
[5] = dose: 50.0 mg/kg/injection, schedule: Q01DX009 (ip), vehicle: saline with Tween-80
[6] = dose: 50.0 mg/kg/injection, schedule: Q04DX003 (ip), vehicle: saline with Tween-80
[7] = dose: 100.0 mg/kg/injection, schedule: Q01DX009 (ip), vehicle: saline with Tween-80
[8] = dose: 200.0 mg/kg/injection, schedule: Q01DX009 (ip), vehicle: saline with Tween-80
[9] = dose: 400.0 mg/kg/injection, schedule: Q01DX009 (ip), vehicle: saline with Tween-80
[10] = dose: 400.0 mg/kg/injection, schedule: Q04DX003 (ip), vehicle: saline with Tween-80
[11] = dose: 50.0 mg/kg/injection, schedule: Q01DX005 (ip), vehicle: saline with Tween-80
[12] = dose: 100.0 mg/kg/injection, schedule: Q04DX003 (ip), vehicle: saline with Tween-80
[13] = dose: 50.0 mg/kg/injection, schedule: Q01DX009 (ip), vehicle: saline
[14] = dose: 100.0 mg/kg/injection, schedule: Q01DX009 (ip), vehicle: saline
[15] = dose: 200.0 mg/kg/injection, schedule: Q04DX003 (ip), vehicle: saline with Tween-80

Measured: T/C

O=S(=O)(F)c1cc(C[P+](c2ccccc2)(c2ccccc2)c2ccccc2)ccc1Cl
inactive: dose: 2.0 mg/kg/injection, schedule: Q01DX009 (ip), vehicle: saline with Tween-80 109 % of control | dose: 8.0 mg/kg/injection, schedule: Q01DX009 (ip), vehicle: Klucel (hydroxypropylcellulose) (HPC) 118 % of control | dose: 8.0 mg/kg/injection, schedule: Q01DX009 (ip), vehicle: saline + alcohol 123 % of control | dose: 12.0 mg/kg/injection, schedule: Q01DX009 (ip), vehicle: saline + alcohol 115 % of control | dose: 18.0 mg/kg/injection, schedule: Q01DX009 (ip), vehicle: saline + alcohol 123 % of control | [1] 110 % of control

CCOC(=O)CNC(=O)C(CC(C)C)NC(=O)C1CCCN1C(=O)OCc1ccccc1 (stereo not drawn) (Cbz-Pro-Leu-Gly-OEt; configuration not given here)
inactive: dose: 12.5 mg/kg/injection, schedule: Q01DX009 (ip), vehicle: Klucel (hydroxypropylcellulose) (HPC) 124 % of control | dose: 25.0 mg/kg/injection, schedule: Q01DX009 (ip), vehicle: Klucel (hydroxypropylcellulose) (HPC) 89 % of control | dose: 50.0 mg/kg/injection, schedule: Q01DX009 (ip), vehicle: Klucel (hydroxypropylcellulose) (HPC) 95 % of control | dose: 100.0 mg/kg/injection, schedule: Q04DX003 (ip), vehicle: Klucel (hydroxypropylcellulose) (HPC) 87 % of control | dose: 200.0 mg/kg/injection, schedule: Q04DX003 (ip), vehicle: Klucel (hydroxypropylcellulose) (HPC) 91 % of control | dose: 400.0 mg/kg/injection, schedule: Q04DX003 (ip), vehicle: Klucel (hydroxypropylcellulose) (HPC) 87 % of control

CC(=O)CC(C)=O.CC(=O)CC(C)=O.Cc1nccn1C.O=N[O-].[Co]
inactive: dose: 100.0 mg/kg/injection, schedule: Q04DX002 (ip), vehicle: saline with Tween-80 105 % of control

COc1cc2ccc3c4cc5c(cc4cnc3c2cc1OC)OCO5
inactive: [2] 109 % of control and 119 % of control | [3] 102 % of control | [1] 106 % of control | [4] 100 % of control | [5] 106 % of control | [6] 92 % of control | [7] 99 % of control and 100 % of control and 114 % of control | [8] 107 % of control and 111 % of control | [9] 101 % of control and 124 % of control | [10] 92 % of control

O=C(Nc1cccc2ccccc12)ON1C(=O)c2ccccc2C1=O
inactive: [11] 110 % of control | dose: 100.0 mg/kg/injection, schedule: Q01DX005 (ip), vehicle: saline with Tween-80 115 % of control | dose: 200.0 mg/kg/injection, schedule: Q01DX005 (ip), vehicle: saline with Tween-80 120 % of control

CN1CCN(C(=O)Cc2c[nH]c3ccccc23)CC1
inactive: dose: 6.25 mg/kg/injection, schedule: Q01DX009 (ip), vehicle: saline with Tween-80 105 % of control | [3] 111 % of control | [4] 101 % of control | [5] 95 % of control | [6] 104 % of control | [7] 89 % of control | [12] 113 % of control

OCC1=CCCCC1
inactive: [5] 106 % of control | [7] 98 % of control | [8] 104 % of control

CN(C)c1ccc([N+](=O)[O-])cn1
inactive: [2] 95 % of control | [1] 102 % of control | [5] 98 % of control | [7] 98 % of control

O=[N+]([O-])c1ccc(N(CCO)CCO)c2nonc12
inactive: dose: 15.0 mg/kg/injection, schedule: Q01DX009 (ip), vehicle: saline with Tween-80 101 % of control | [4] 114 % of control | dose: 30.0 mg/kg/injection, schedule: Q01DX009 (ip), vehicle: saline with Tween-80 100 % of control | [6] 97 % of control | dose: 60.0 mg/kg/injection, schedule: Q01DX009 (ip), vehicle: saline with Tween-80 101 % of control | [12] 98 % of control

CC(=O)C1(O)Cc2c(O)c3c(c(O)c2C(O)C1)C(=O)c1c(OC(C)C)cccc1C3=O (stereo not given)
inactive: dose: 3.13 mg/kg/injection, schedule: Q04DX003 (ip), vehicle: other 108 % of control | dose: 3.13 mg/kg/injection, schedule: Q04DX009 (ip), vehicle: other 101 % of control | dose: 6.25 mg/kg/injection, schedule: Q04DX003 (ip), vehicle: other 105 % of control | dose: 6.25 mg/kg/injection, schedule: Q04DX009 (ip), vehicle: other 92 % of control | dose: 12.5 mg/kg/injection, schedule: Q04DX003 (ip), vehicle: other 100 % of control | dose: 12.5 mg/kg/injection, schedule: Q04DX009 (ip), vehicle: other 110 % of control | dose: 25.0 mg/kg/injection, schedule: Q04DX003 (ip), vehicle: other 105 % of control | dose: 25.0 mg/kg/injection, schedule: Q04DX009 (ip), vehicle: other 110 % of control | dose: 50.0 mg/kg/injection, schedule: Q04DX003 (ip), vehicle: other 101 % of control | dose: 50.0 mg/kg/injection, schedule: Q04DX009 (ip), vehicle: other 99 % of control

[O-]/C(CCCl)=N\[n+]1c2c(nc3ccccc31)-c1cccc3cccc-2c13
inactive: dose: 12.5 mg/kg/injection, schedule: Q01DX001 (ip), vehicle: Klucel (hydroxypropylcellulose) (HPC) 102 % of control | dose: 25.0 mg/kg/injection, schedule: Q01DX001 (ip), vehicle: Klucel (hydroxypropylcellulose) (HPC) 100 % of control | dose: 50.0 mg/kg/injection, schedule: Q01DX001 (ip), vehicle: Klucel (hydroxypropylcellulose) (HPC) 102 % of control

Cc1cc(-c2ccc(Cl)cc2)[n+](C)n1C
inactive: [2] 100 % of control | [1] 111 % of control

O=[n+]1ccn2ccccc2c1
inactive: dose: 25.0 mg/kg/injection, schedule: Q01DX009 (ip), vehicle: saline 95 % of control | [13] 114 % of control | dose: 65.0 mg/kg/injection, schedule: Q01DX009 (ip), vehicle: saline 95 % of control | dose: 75.0 mg/kg/injection, schedule: Q04DX003 (ip), vehicle: saline 100 % of control | [14] 108 % of control | dose: 150.0 mg/kg/injection, schedule: Q04DX003 (ip), vehicle: saline 90 % of control

Cc1ccc2c(c1)nc1c3ccccc3nnn21
inactive: [6] 112 % of control | [12] 104 % of control | [15] 107 % of control

O=c1c2cccc3cccc(c32)c2nc3ccccc3n12
inactive: dose: 4.0 mg/kg/injection, schedule: Q01DX009 (ip), vehicle: saline with Tween-80 100 % of control | dose: 6.0 mg/kg/injection, schedule: Q01DX009 (ip), vehicle: saline with Tween-80 108 % of control | dose: 6.25 mg/kg/injection, schedule: Q04DX003 (ip), vehicle: saline with Tween-80 87 % of control | [3] 95 % of control | [4] 112 % of control

CC12CCC(C(N)C1=O)C2(C)C (stereo not given)
inactive: [13] 107 % of control | [14] 114 % of control | dose: 100.0 mg/kg/injection, schedule: Q04DX003 (ip), vehicle: saline 101 % of control | dose: 200.0 mg/kg/injection, schedule: Q01DX009 (ip), vehicle: saline 86 % of control | dose: 200.0 mg/kg/injection, schedule: Q04DX003 (ip), vehicle: saline 104 % of control

COc1cc(/C=N/NC(N)=S)cc(OC)c1OC
inactive: [7] 104 % of control | [12] 90 % of control | [8] 104 % of control | [15] 109 % of control | [9] 100 % of control | [10] 104 % of control

COc1ccc(NC(=O)Nc2ccccc2C(F)(F)F)cc1
inactive: dose: 100.0 mg/kg/injection, schedule: Q01DX001 (ip), vehicle: saline with Tween-80 95 % of control | dose: 200.0 mg/kg/injection, schedule: Q01DX001 (ip), vehicle: saline with Tween-80 100 % of control | dose: 400.0 mg/kg/injection, schedule: Q01DX001 (ip), vehicle: saline with Tween-80 90 % of control

CN=c1ccc2nc3ccc(N)cc3sc-2c1
inactive: [11] 103 % of control
